Data taken from patent publication US6342219B1 (Board of Regents, The University of Texas System, priority 1999, dated 2002).

Legend:
[1] = system: VEGFR2 (KDR/Fc); experiment: Coprecipitation assay, VEGFR2/Fc; format: binding; conditions: 40 ng VEGF, 200 ng receptor/Fc
Method: 200 ng of soluble forms of VEGFR1 (Flt-1/Fc) or VEGFR2 (KDR/Fc, R&D Systems, Minneapolis, Minn.) were added for a total volume of 50 μl and incubated for 2 hrs. The receptor/Fc constructs were precipitated using Protein A-sepharose beads and the resulting precipitate was washed 4 times with binding buffer.
Reducing sample buffer was added to the pellet and supernatant of each reaction and both were analyzed by 12% SDS-PAGE and transferred to PVDF membranes. […] The soluble receptor/Fc constructs were also detected by using peroxidase-conjugated goat anti-human Fc (Kirkegaard & Perry Laboratories, Inc.)
The receptor/Fc constructs were precipitated by incubation with Protein A sepharose beads. The precipitate was washed and resuspended in reducing sample buffer and separated by 12% SDS-PAGE and transferred to PVDF.

[2] = target: T1, β-glucuronidase (GUS) (Escherichia coli, UniProt P05804); experiment: Enzymatic activity of the GUS portion; format: biochemical, E. coli
T1 construct: made in house; host or cells: E. coli M15 cells
T1 sequence (P05804 whole entry): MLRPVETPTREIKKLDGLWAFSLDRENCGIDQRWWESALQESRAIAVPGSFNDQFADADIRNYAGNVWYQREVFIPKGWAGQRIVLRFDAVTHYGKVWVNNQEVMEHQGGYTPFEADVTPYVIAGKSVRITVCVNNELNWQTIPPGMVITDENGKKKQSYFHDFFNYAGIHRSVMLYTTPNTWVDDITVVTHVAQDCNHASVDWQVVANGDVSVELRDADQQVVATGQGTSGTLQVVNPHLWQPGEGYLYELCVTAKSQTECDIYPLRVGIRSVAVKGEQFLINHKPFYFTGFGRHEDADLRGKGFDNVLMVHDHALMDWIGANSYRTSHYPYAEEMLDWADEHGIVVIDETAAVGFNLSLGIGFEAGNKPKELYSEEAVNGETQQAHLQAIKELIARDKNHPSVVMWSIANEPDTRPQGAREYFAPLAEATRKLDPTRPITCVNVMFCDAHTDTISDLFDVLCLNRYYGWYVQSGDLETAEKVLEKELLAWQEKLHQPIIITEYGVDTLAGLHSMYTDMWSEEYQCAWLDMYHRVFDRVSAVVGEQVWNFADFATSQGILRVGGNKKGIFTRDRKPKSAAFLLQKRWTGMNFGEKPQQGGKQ
Excerpt: The 6-His GUS was pure based upon SDS-PAGE, where it ran as a single band of 75 kDa band. On gel filtration columns, the 6-His GUS runs as a tetramer of about 300 kDa.
The biological activity of each component of the 2C3-GUS conjugate was confirmed.

[3] = system: human NCI-H358 NSCLC tumors; format: in vivo, SCID mice
[4] = Blood clearance of radioiodinated 2C3-GUS; format: in vivo; conditions: mice, intravenous injection, 125I-labelled
Excerpt: 2C3-GUS was radioiodinated with ^125I to a specific activity of 5×10^6 cpm/μg.

[5] = target: VEGFR1 (Homo sapiens, UniProt P17948); conditions: read-out: Kd of VEGF binding to VEGFR1; Terman et al., 1994; cited from earlier work
Chain of VEGFR1 (P17948 27-1338): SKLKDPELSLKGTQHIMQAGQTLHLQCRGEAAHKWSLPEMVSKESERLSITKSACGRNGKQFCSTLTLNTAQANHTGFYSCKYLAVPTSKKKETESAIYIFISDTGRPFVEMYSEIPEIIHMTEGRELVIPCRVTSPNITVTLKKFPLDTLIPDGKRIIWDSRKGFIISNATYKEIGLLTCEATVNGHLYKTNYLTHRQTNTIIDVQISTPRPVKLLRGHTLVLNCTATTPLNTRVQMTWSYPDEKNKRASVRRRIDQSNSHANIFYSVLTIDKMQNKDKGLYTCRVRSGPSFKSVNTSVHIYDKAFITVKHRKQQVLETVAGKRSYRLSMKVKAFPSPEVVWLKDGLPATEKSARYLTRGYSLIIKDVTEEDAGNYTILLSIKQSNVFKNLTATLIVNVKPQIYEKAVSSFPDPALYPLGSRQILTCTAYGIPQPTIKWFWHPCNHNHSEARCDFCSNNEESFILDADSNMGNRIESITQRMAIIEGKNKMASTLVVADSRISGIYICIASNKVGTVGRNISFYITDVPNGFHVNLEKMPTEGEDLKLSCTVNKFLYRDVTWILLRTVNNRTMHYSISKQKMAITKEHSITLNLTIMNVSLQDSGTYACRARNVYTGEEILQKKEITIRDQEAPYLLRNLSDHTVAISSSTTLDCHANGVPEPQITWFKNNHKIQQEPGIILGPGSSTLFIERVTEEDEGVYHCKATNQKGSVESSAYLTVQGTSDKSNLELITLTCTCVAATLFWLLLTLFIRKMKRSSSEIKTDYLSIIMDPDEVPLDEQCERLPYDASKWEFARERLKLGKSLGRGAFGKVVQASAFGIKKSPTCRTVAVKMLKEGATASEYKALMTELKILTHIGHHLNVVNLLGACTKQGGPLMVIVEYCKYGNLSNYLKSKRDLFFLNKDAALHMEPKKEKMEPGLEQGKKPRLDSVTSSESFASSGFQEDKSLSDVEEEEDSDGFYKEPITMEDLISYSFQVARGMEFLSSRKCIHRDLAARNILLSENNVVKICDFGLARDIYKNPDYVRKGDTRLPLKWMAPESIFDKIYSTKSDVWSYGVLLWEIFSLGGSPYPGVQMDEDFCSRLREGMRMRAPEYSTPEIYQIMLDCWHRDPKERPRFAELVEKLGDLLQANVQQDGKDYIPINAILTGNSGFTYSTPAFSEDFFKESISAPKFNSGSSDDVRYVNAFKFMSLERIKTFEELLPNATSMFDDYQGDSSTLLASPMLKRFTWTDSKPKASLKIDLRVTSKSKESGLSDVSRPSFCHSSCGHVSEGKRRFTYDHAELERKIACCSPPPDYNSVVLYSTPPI

[6] = system: cancer patients having progressive disease; conditions: patients having progressive disease before treatment; cited from earlier work

Compound: 2C3 F(ab′)2: F(ab′)2 of 2C3
- Blocking of VEGF binding to VEGFR2/Fc in solution [1]: blocked

Compound: 2C3-GUS [Clone 2C3-GUS]
- Enzymatic activity of the GUS portion [2]: retained enzymatic activity
- Localization after i.v. injection ([3]; SCID mice bearing subcutaneous NCI-H358): specifically localized to tumor vasculature and surrounding tumor stroma
- Staining of normal tissues ([3]; mouse, in vivo): unstained
- Time of maximal localization after injection ([3]; mouse, in vivo, sc): 24 to 48 h
- t½ α [4]: about 6 hours
- t½ β [4]: about 25 hours

Compound: VEGF
- Kd [5]: 15 to 100 pM

Compound: NC(=O)c1nnn(Cc2cc(Cl)c(C(=O)c3ccc(Cl)cc3)c(Cl)c2)c1N [CAI, carboxyamidotriazole]
- Disease stabilization, share of cancer patients [6]: 49%
